Source: PubChem BioAssay (NCI)
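Cultured in 96-well plates, cells were exposed to test compound for 48 hours across five concentrations. At the TGI there is no net growth.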

Legend:
Assay in all cases: NCI-60 cell line screen, 48 h
A498 renal = system: A498 renal
A549 NSCLC = system: A549 NSCLC
ACHN renal = system: ACHN renal
CCRF-CEM leukemia = system: CCRF-CEM leukemia
COLO 205 colon = system: COLO 205 colon
DLD-1 colon = system: DLD-1 colon
DMS 114 small cell lung = system: DMS 114 small cell lung
DMS 273 small cell lung = system: DMS 273 small cell lung
EKVX NSCLC = system: EKVX NSCLC
HCC-2998 colon = system: HCC-2998 colon
HCT-116 colon = system: HCT-116 colon
HCT-15 colon = system: HCT-15 colon
HL-60(TB) leukemia = system: HL-60(TB) leukemia
HOP-18 NSCLC = system: HOP-18 NSCLC
HOP-62 NSCLC = system: HOP-62 NSCLC
HT29 colon = system: HT29 colon
IGROV1 ovarian = system: IGROV1 ovarian
K-562 leukemia = system: K-562 leukemia
KM20L2 colon = system: KM20L2 colon
LOX IMVI melanoma = system: LOX IMVI melanoma
LXFL 529 NSCLC = system: LXFL 529 NSCLC
M14 melanoma = system: M14 melanoma
M19-MEL melanoma = system: M19-MEL melanoma
MALME-3M melanoma = system: MALME-3M melanoma
MOLT-4 leukemia = system: MOLT-4 leukemia
NCI-H226 lung = system: NCI-H226 lung
NCI-H23 lung = system: NCI-H23 lung
NCI-H460 lung = system: NCI-H460 lung
OVCAR-3 ovarian = system: OVCAR-3 ovarian
OVCAR-4 ovarian = system: OVCAR-4 ovarian
OVCAR-5 ovarian = system: OVCAR-5 ovarian
OVCAR-8 ovarian = system: OVCAR-8 ovarian
RPMI-8226 leukemia = system: RPMI-8226 leukemia
RXF 393 renal = system: RXF 393 renal
RXF-631 renal = system: RXF-631 renal
SF-268 CNS = system: SF-268 CNS
SF-295 CNS = system: SF-295 CNS
SF-539 CNS = system: SF-539 CNS
SK-MEL-2 melanoma = system: SK-MEL-2 melanoma
SK-MEL-5 melanoma = system: SK-MEL-5 melanoma
SN12C renal = system: SN12C renal
SNB-19 CNS = system: SNB-19 CNS
SNB-75 CNS = system: SNB-75 CNS
SR leukemia = system: SR leukemia
SW-620 colon = system: SW-620 colon
TK-10 renal = system: TK-10 renal
U251 CNS = system: U251 CNS
UACC-257 melanoma = system: UACC-257 melanoma
UACC-62 melanoma = system: UACC-62 melanoma
UO-31 renal = system: UO-31 renal
786-0 renal = system: 786-0 renal
BT-549 breast = system: BT-549 breast
CAKI-1 renal = system: CAKI-1 renal
DU-145 prostate = system: DU-145 prostate
HOP-92 NSCLC = system: HOP-92 NSCLC
KM12 colon = system: KM12 colon
MCF7 breast = system: MCF7 breast
MDA-MB-231 breast = system: MDA-MB-231 breast
MDA-MB-435 = system: MDA-MB-435
MDA-N = system: MDA-N
NCI-H522 lung = system: NCI-H522 lung
NCI/ADR-RES ovarian = system: NCI/ADR-RES ovarian
PC-3 prostate = system: PC-3 prostate
SK-MEL-28 melanoma = system: SK-MEL-28 melanoma
SK-OV-3 ovarian = system: SK-OV-3 ovarian
SNB-78 CNS = system: SNB-78 CNS
T-47D breast = system: T-47D breast
XF 498 CNS = system: XF 498 CNS

## Nc1nc(=O)n(CC(O)CO)s1 (centres undefined)
A498 renal
  TGI: > 100 µM
A549 NSCLC
  TGI: > 100 µM
ACHN renal
  TGI: > 100 µM
CCRF-CEM leukemia
  TGI: > 100 µM
COLO 205 colon
  TGI: > 100 µM
DLD-1 colon
  TGI: > 100 µM
DMS 114 small cell lung
  TGI: > 100 µM
DMS 273 small cell lung
  TGI: > 100 µM
EKVX NSCLC
  TGI: > 100 µM
HCC-2998 colon
  TGI: > 100 µM
HCT-116 colon
  TGI: > 100 µM
HCT-15 colon
  TGI: > 100 µM
HL-60(TB) leukemia
  TGI: > 100 µM
HOP-18 NSCLC
  TGI: > 100 µM
HOP-62 NSCLC
  TGI: > 100 µM
HT29 colon
  TGI: > 100 µM
IGROV1 ovarian
  TGI: > 100 µM
K-562 leukemia
  TGI: > 100 µM
KM20L2 colon
  TGI: > 100 µM
LOX IMVI melanoma
  TGI: > 100 µM
LXFL 529 NSCLC
  TGI: > 100 µM
M14 melanoma
  TGI: > 100 µM
M19-MEL melanoma
  TGI: > 100 µM
MALME-3M melanoma
  TGI: > 100 µM
MOLT-4 leukemia
  TGI: > 100 µM
NCI-H226 lung
  TGI: > 100 µM
NCI-H23 lung
  TGI: > 100 µM
NCI-H460 lung
  TGI: > 100 µM
OVCAR-3 ovarian
  TGI: > 100 µM
OVCAR-4 ovarian
  TGI: > 100 µM
OVCAR-5 ovarian
  TGI: > 100 µM
OVCAR-8 ovarian
  TGI: > 100 µM
RPMI-8226 leukemia
  TGI: > 100 µM
RXF 393 renal
  TGI: > 100 µM
RXF-631 renal
  TGI: > 100 µM
SF-268 CNS
  TGI: > 100 µM
SF-295 CNS
  TGI: > 100 µM
SF-539 CNS
  TGI: > 100 µM
SK-MEL-2 melanoma
  TGI: > 100 µM
SK-MEL-5 melanoma
  TGI: > 100 µM
SN12C renal
  TGI: > 100 µM
SNB-19 CNS
  TGI: > 100 µM
SNB-75 CNS
  TGI: > 100 µM
SR leukemia
  TGI: > 100 µM
SW-620 colon
  TGI: > 100 µM
TK-10 renal
  TGI: > 100 µM
U251 CNS
  TGI: > 100 µM
UACC-257 melanoma
  TGI: > 100 µM
UACC-62 melanoma
  TGI: > 100 µM
UO-31 renal
  TGI: > 100 µM

## CCN(CC)CCCNc1ncc(C)c2c1c1ccc3c(O)cccc3c1n2C
786-0 renal
  TGI: 2.19 µM
A498 renal
  TGI: 32 µM
A549 NSCLC
  TGI: 2.34 µM
ACHN renal
  TGI: 12.8 µM
BT-549 breast
  TGI: 4.05 µM
CAKI-1 renal
  TGI: 3.4 µM
CCRF-CEM leukemia
  TGI: 6.1 µM
COLO 205 colon
  TGI: 17.5 µM
DLD-1 colon
  TGI: 3.85 µM
DMS 114 small cell lung
  TGI: 2.68 µM
DMS 273 small cell lung
  TGI: 2.14 µM
DU-145 prostate
  TGI: 3.79 µM
EKVX NSCLC
  TGI: 6.87 µM
HCC-2998 colon
  TGI: 4.31 µM
HCT-116 colon
  TGI: 2.28 µM
HL-60(TB) leukemia
  TGI: 5.07 µM
HOP-18 NSCLC
  TGI: 16.3 µM
HOP-62 NSCLC
  TGI: 2.58 µM
HOP-92 NSCLC
  TGI: 26.6 µM
HT29 colon
  TGI: 5.04 µM
IGROV1 ovarian
  TGI: 5.97 µM
K-562 leukemia
  TGI: 4.64 µM
KM12 colon
  TGI: 3.15 µM
KM20L2 colon
  TGI: 10.5 µM
LOX IMVI melanoma
  TGI: 2.64 µM
LXFL 529 NSCLC
  TGI: 3.06 µM
M14 melanoma
  TGI: 9.07 µM
MALME-3M melanoma
  TGI: 34.7 µM
MCF7 breast
  TGI: 2.06 µM
MDA-MB-231 breast
  TGI: 3.42 µM
MDA-MB-435
  TGI: 33.8 µM
MDA-N
  TGI: 3.01 µM
MOLT-4 leukemia
  TGI: 1.84 µM
NCI-H226 lung
  TGI: 26.2 µM
NCI-H23 lung
  TGI: 4.82 µM
NCI-H522 lung
  TGI: 2.29 µM
NCI/ADR-RES ovarian
  TGI: > 100 µM
OVCAR-3 ovarian
  TGI: 18.2 µM
OVCAR-4 ovarian
  TGI: 3.45 µM
OVCAR-5 ovarian
  TGI: 11.8 µM
OVCAR-8 ovarian
  TGI: 3.5 µM
PC-3 prostate
  TGI: 2.16 µM
RPMI-8226 leukemia
  TGI: > 23.9 µM
RXF 393 renal
  TGI: 9.41 µM
SF-268 CNS
  TGI: 36.6 µM
SF-295 CNS
  TGI: 4.76 µM
SF-539 CNS
  TGI: 14.9 µM
SK-MEL-2 melanoma
  TGI: 33.8 µM
SK-MEL-28 melanoma
  TGI: 17.5 µM
SK-MEL-5 melanoma
  TGI: 13.4 µM
SK-OV-3 ovarian
  TGI: 16.6 µM
SN12C renal
  TGI: 14.3 µM
SNB-19 CNS
  TGI: 3.17 µM
SNB-75 CNS
  TGI: 6.74 µM
SNB-78 CNS
  TGI: > 61 µM
SR leukemia
  TGI: 1.78 µM
SW-620 colon
  TGI: 2.61 µM
T-47D breast
  TGI: 49.3 µM
TK-10 renal
  TGI: 22.9 µM
U251 CNS
  TGI: 2.6 µM
UACC-257 melanoma
  TGI: 31 µM
UACC-62 melanoma
  TGI: 49.2 µM
UO-31 renal
  TGI: 21.2 µM
XF 498 CNS
  TGI: 29.5 µM
